Results published in patent US20230233650A1, “NOVEL FATTY ACID MODIFIED UROCORTIN 2 DERIVATIVES AND THE USES THEREOF” (Novo Nordisk A/S, priority 2021, published 2023).
Read-outs that look alike come from different tables or passages of the source. Numbered stars: 1 amine (or outer) side, 2 acyl side, 3 side chain; on linkers, the order of the positions; unused ones are H or OH. Side chains are listed from the residue outwards. Ends that are not written are not given here. Peptide text beside a SMILES is read from it. * marks the point of attachment. C20 diacid = O=C(O)CCCCCCCCCCCCCCCCCCC(=O)*; γGlu = O=C(O)[C@H](CCC(=O)[*:2])N[*:1]; AEEA = NCCOCCOCC(=O)O

Legend:
[1] = for Average purity loss per week: 8 mM sodium phosphate buffer pH 7.4, 0.7-1.1 mM, 37° C., 0-4 weeks, UPLC
Source text: The purpose of the study was to evaluate the chemical stability of a liquid pharmaceutical formulation comprising test compound. The chemical stability was be determined by measuring test compound purity loss (i.e. reduction of test compound relative to other species in the sample) over time using ultra-performance liquid chromatography (UPLC) coupled to an ultra-violet detector operated in reversed-phase mode.
Equipment and analysis conditions: Acquity UPLC I-Class instrument (Waters, Milford, US) together with either an Acquity UPLC CSH Fluorophenyl column (PN. 186005353 from Waters, Milford, US) or an Acquity Premier CSH column (PN. 186009462 from Waters, Milford, US), both having the dimensions 150 × 2.1 mm, particle diameter 1.7 µm and kept at 30° C., was used for the test. Mobile phase A was 0.1% vol/vol trifluoroacetic acid in water and mobile phase B was 0.09% vol/vol trifluoroacetic acid in acetonitrile. The flow rate was 0.35 mL/min while elution was done with a linear gradient of 26% to 40% mobile phase B over 50 min for the UPLC Fluorophenyl column and 30% to 50% mobile phase B over 50 min for the Premier CSH column. Detection was performed at UV 214 nm with 2 µL of volume injected from each sample.
Samples were kept in glass vials for quiescent storage in a 37° C. incubation chamber and subjected to analysis after 0, 1, 2, 3 and 4 weeks. Samples were analysed using UPLC (as described above) with chromatogram peak area as a measure of test compound concentration. Purity was determined at each timepoint as the fraction, given in %, of test compound relative to other species present in the sample. The purity loss over time is the relative difference in % test compound between timepoints and it is reported in Table 7 as the average from the five timepoints.

[2] = Physical stability of liquid formulation (visible particles, turbidity); format: physicochemical; settings: 8 mM sodium phosphate; for Particle formation onset: pH 7.4, 31-37 mg/mL (Compound 7: 21 mg/mL), 37° C., 2 weeks, daily rotation
Experimental: The purpose of the study was to evaluate the physical stability of a liquid pharmaceutical formulation comprising test compound. The physical stability was determined as the formation of visible particles and the change in turbidity over time.
Test procedures: Test compound was dissolved in 8 mM sodium phosphate, pH 7.4 to a concentration of 31-37 mg/mL in vials (except for Compound 7 which was dissolved to a concentration of 21 mg/mL and Compound 5 which was not soluble at concentrations of ≥20 mg/mL). The vials were incubated at 37° C. for 2 weeks. Every day the vials were rotated end-to-end for 1 minute, 30 rounds. Every second day the vials were placed in front of a black background with strong LED light (Schott light source, KL2500) illuminating from below and a picture for analysis was taken.
Analysis: “Average pixel intensity” is a measure of turbidity of a liquid solution. It was measured by taking the average pixel intensity, ranging from 0 (black) to 255 (white), in a small square of a digital image of the glass vials containing a liquid solution and results are reported in FIG. 1. “Particle density” is a measure of visible particles in a liquid solution. It was measured by counting the number of visible particles in a region of a digital image of the glass vial containing a liquid solution and dividing with the area of the region and the results are reported in FIG. 2.

Human CRF1 receptor = target: T1, Human CRF1 receptor (Homo sapiens, UniProt P34998); test: CRF1 receptor binding, scintillation proximity assay (SPA); settings: displacement of [125I]-Sauvagine, CHO-K1 cell membranes
T1 construct: host or cells: CHO-K1 (membrane preparation)
T1 sequence (P34998 24-415): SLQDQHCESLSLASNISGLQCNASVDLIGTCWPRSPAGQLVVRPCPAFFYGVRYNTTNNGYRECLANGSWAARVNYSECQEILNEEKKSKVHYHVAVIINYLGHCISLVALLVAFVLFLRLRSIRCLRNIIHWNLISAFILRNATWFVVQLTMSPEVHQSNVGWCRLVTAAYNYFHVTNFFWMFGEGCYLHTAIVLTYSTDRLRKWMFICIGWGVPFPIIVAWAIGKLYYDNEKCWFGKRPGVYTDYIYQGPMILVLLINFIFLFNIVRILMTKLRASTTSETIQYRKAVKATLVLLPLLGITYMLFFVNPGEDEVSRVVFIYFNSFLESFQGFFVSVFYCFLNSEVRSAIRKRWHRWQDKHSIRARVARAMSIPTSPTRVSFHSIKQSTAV
Experimental: (§1) The purpose of this example was to test the in vitro binding of the compounds of the invention to receptor subtypes CRF1 and CRF2. The in vitro binding of the compounds was determined in a scintillation proximity assay (SPA) as described below. The native, human Ucn1 and Ucn2 peptides are included as references. Scintillation Proximity Assay: […] Both cell lines were cultured at 37° C. in a humidified atmosphere with 5% CO2. […] Membranes were prepared by the following protocol: cultured cells were washed twice with cold Dulbecco’s phosphate buffered saline and detached using TrypLE™ (ThermoFisher) and transferred to tubes and centrifuged for 5 minutes at 1000 g at +4° C. Pellets were resuspended in ice cold homogenization buffer (20 mM Hepes pH 7.1, 5 mM MgCl2, 1 mg/ml Bacitracin with 2 complete EDTA-free protease inhibitor cocktail tablets/50 ml (Roche)) and then homogenized for 30 seconds using a Ultra-Turrax T25 tissue homogenizer (IKA) at medium speed. The homogenate was centrifuged at 35,000 g for 15 minutes at +4° C. using an ultracentrifuge, and the supernatant was discarded, and fresh homogenization buffer was added. Homogenization of the pellet was repeated a total of three times. The final pellet was resuspended in a few millilitres of homogenization buffer and protein concentration was determined using the Bradford method. The membrane preparation was transferred to cryotubes, and the aliquots were stored at -80° C. Each membrane preparation was subsequently titrated to give an appropriate window in the assay. Test procedure: […] Plates were sealed and incubated at 25° C. for 2 hours in a plate shaker set at 400 rpm and thereafter centrifuged at 1500 rpm for 10 minutes. SPA plates were let to stand at room temperature for about 16 hours prior to reading on microplate scintillation counter. Displacement of radioligand was measured as reduction in luminescence, and IC50 values were calculated by nonlinear regression analysis of four parameter sigmoidal dose-response curves.

Human CRF2 receptor = target: T2, Human CRF2 receptor (Homo sapiens, UniProt Q13324); test: CRF2 receptor binding, scintillation proximity assay (SPA); settings: displacement of [125I]-Sauvagine, CHO-K1 cell membranes
T2 construct: host or cells: CHO-K1 (membrane preparation)
T2 sequence (Q13324 1-411): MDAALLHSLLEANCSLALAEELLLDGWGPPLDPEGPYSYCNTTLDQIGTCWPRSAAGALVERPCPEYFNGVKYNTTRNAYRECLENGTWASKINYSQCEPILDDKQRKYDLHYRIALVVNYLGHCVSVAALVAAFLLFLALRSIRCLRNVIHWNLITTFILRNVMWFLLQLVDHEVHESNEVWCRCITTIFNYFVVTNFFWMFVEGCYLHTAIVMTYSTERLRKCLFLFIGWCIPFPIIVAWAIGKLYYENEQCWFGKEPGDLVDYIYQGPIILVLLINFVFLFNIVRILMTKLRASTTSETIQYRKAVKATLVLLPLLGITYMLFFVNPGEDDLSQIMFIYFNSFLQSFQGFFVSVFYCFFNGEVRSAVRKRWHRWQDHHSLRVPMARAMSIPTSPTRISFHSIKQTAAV
Experimental: as §1

| Average purity loss per week [1] | Particle formation onset [2] | IC50 (Human CRF1 receptor) | IC50 (Human CRF2 receptor) | Molecule | also measured |
| --- | --- | --- | --- | --- | --- |
| 2.43% |  |  |  | N{ε}-[[[(4S)-4-carboxy-4-[[(4S)-4-carboxy-4-[[(4S)-4-carboxy-4-(19-carboxynonadecanoylamino)butanoyl]amino]butanoyl]amino]butanoyl]amino]ethoxy]ethoxy]a cetyl]amino]ethoxy]ethoxy]acetyl]Lys-[Glu37]-hUcn2 [Compound 8] |  |
| 3.95% | 7 days |  |  | N{ε}-[[[(4S)-4-carboxy-4-[[(4S)-4-carboxy-4-[[(4S)-4-carboxy-4-(19-carboxynonadecanoylamino)butanoyl]amino]butanoyl]amino]butanoyl]amino]ethoxy]ethoxy]a cetyl]amino]ethoxy]ethoxy]acetyl]Lys-[Glu36]-hUcn2 [Compound 7] |  |
| Not soluble | Not soluble |  |  | N{ε}-[[[(4S)-4-carboxy-4-[[(4S)-4-carboxy-4-[[(4S)-4-carboxy-4-(19-carboxynonadecanoylamino)butanoyl]amino]butanoyl]amino]butanoyl]amino]ethoxy]ethoxy]a cetyl]amino]ethoxy]ethoxy]acetyl]Lys-hUcn2 [Compound 5] | Solubility (not soluble at concentrations of) ([1]; pH 7.4): < 700 µM; Solubility (not soluble at concentrations of) ([2]; pH 7.4): < 20 mg/mL |
|  |  | > 1 µM | 0.897 µM | CC[C@H](C)[C@H](NC(=O)[C@H](CCCNC(=N)N)NC(=O)[C@H](C)NC(=O)[C@H](CC(N)=O)NC(=O)[C@@H](NC(=O)[C@@H](NC(=O)[C@H](C)NC(=O)[C@H](CCC(N)=O)NC(=O)[C@H](CCC(=O)O)NC(=O)[C@H](CCCNC(=N)N)NC(=O)[C@H](C)NC(=O)[C@H](C)NC(=O)[C@H](CCCNC(=N)N)NC(=O)[C@H](C)NC(=O)[C@H](CCCNC(=N)N)NC(=O)[C@H](C)NC(=O)[C@H](CCC(N)=O)NC(=O)[C@H](CCC(=O)O)NC(=O)[C@H](CC(C)C)NC(=O)[C@H](CC(C)C)NC(=O)[C@@H](NC(=O)[C@H](CCC(N)=O)NC(=O)[C@H](CC(C)C)NC(=O)[C@H](CC(C)C)NC(=O)CNC(=O)[C@@H](NC(=O)[C@@H]1CCCN1C(=O)[C@@H](NC(=O)[C@H](CC(=O)O)NC(=O)[C@H](CC(C)C)NC(=O)[C@H](CO)NC(=O)[C@H](CC(C)C)NC(=O)[C@@H](NC(=O)[C@@H](NC(=O)[C@@H](N)CCCCNC(=O)COCCOCCNC(=O)COCCOCCNC(=O)CC[C@H](NC(=O)CC[C@H](NC(=O)CC[C@H](NC(=O)CCCCCCCCCCCCCCCCCCC(=O)O)C(=O)O)C(=O)O)C(=O)O)[C@@H](C)CC)C(C)C)C(C)C)[C@@H](C)CC)[C@@H](C)CC)[C@@H](C)O)[C@@H](C)O)C(=O)N[C@@H](CCC(=O)O)C(=O)N[C@@H](C)C(=O)N[C@@H](CCCNC(=N)N)C(=O)N[C@H](C(N)=O)C(C)C [Compound 9] (H-K([AEEA-AEEA-γGlu-γGlu-γGlu-C20 diacid])IVLSLDVPIGLLQILLEQARARAAREQATTNARIEARV-NH2) |  |
|  |  | > 1 µM | 0.196 µM | CC[C@H](C)[C@H](NC(=O)[C@H](CCC(=O)O)NC(=O)[C@H](C)NC(=O)[C@H](CC(N)=O)NC(=O)[C@@H](NC(=O)[C@@H](NC(=O)[C@H](C)NC(=O)[C@H](CCC(N)=O)NC(=O)[C@H](CCC(=O)O)NC(=O)[C@H](CCCNC(=N)N)NC(=O)[C@H](C)NC(=O)[C@H](C)NC(=O)[C@H](CCCNC(=N)N)NC(=O)[C@H](C)NC(=O)[C@H](CCCNC(=N)N)NC(=O)[C@H](C)NC(=O)[C@H](CCC(N)=O)NC(=O)[C@H](CCC(=O)O)NC(=O)[C@H](CC(C)C)NC(=O)[C@H](CC(C)C)NC(=O)[C@@H](NC(=O)[C@H](CCC(N)=O)NC(=O)[C@H](CC(C)C)NC(=O)[C@H](CC(C)C)NC(=O)CNC(=O)[C@@H](NC(=O)[C@@H]1CCCN1C(=O)[C@@H](NC(=O)[C@H](CC(=O)O)NC(=O)[C@H](CC(C)C)NC(=O)[C@H](CO)NC(=O)[C@H](CC(C)C)NC(=O)[C@@H](NC(=O)[C@@H](N)CCCCNC(=O)COCCOCCNC(=O)COCCOCCNC(=O)CC[C@H](NC(=O)CC[C@H](NC(=O)CC[C@H](NC(=O)CCCCCCCCCCCCCCCCCCC(=O)O)C(=O)O)C(=O)O)C(=O)O)C(C)C)C(C)C)[C@@H](C)CC)[C@@H](C)CC)[C@@H](C)O)[C@@H](C)O)C(=O)N[C@@H](CC(C)C)C(=O)N[C@@H](CCC(=O)O)C(=O)N[C@@H](CCCNC(=N)N)C(=O)N[C@H](C(N)=O)C(C)C [Compound 11] (H-K([AEEA-AEEA-γGlu-γGlu-γGlu-C20 diacid])VLSLDVPIGLLQILLEQARARAAREQATTNAEILERV-NH2) |  |
| 0.90% | 1 days |  |  | N{ε}-[[[(4S)-4-carboxy-4-[[(4S)-4-carboxy-4-[[(4S)-4-carboxy-4-(19-carboxynonadecanoylamino)butanoyl]amino]butanoyl]amino]butanoyl]amino]ethoxy]ethoxy]a cetyl]amino]ethoxy]ethoxy]acetyl]Lys-[Glu33]-hUcn2 [Compound 6] |  |
|  |  | > 1 µM | 0.569 µM | CC[C@H](C)[C@H](NC(=O)[C@H](CCC(=O)O)NC(=O)[C@H](C)NC(=O)[C@H](CC(N)=O)NC(=O)[C@@H](NC(=O)[C@@H](NC(=O)[C@H](C)NC(=O)[C@H](CCC(N)=O)NC(=O)[C@H](CCC(=O)O)NC(=O)[C@H](CCCNC(=N)N)NC(=O)[C@H](C)NC(=O)[C@H](C)NC(=O)[C@H](CCCNC(=N)N)NC(=O)[C@H](C)NC(=O)[C@H](CCCNC(=N)N)NC(=O)[C@H](C)NC(=O)[C@H](CCC(N)=O)NC(=O)[C@H](CCC(=O)O)NC(=O)[C@H](CC(C)C)NC(=O)[C@H](CC(C)C)NC(=O)[C@@H](NC(=O)[C@H](CCC(N)=O)NC(=O)[C@H](CC(C)C)NC(=O)[C@H](CC(C)C)NC(=O)CNC(=O)[C@@H](NC(=O)[C@@H]1CCCN1C(=O)[C@@H](NC(=O)[C@H](CC(=O)O)NC(=O)[C@H](CC(C)C)NC(=O)[C@H](CO)NC(=O)[C@H](CC(C)C)NC(=O)[C@@H](NC(=O)[C@@H](NC(=O)[C@@H](N)CCCCNC(=O)COCCOCCNC(=O)COCCOCCNC(=O)CC[C@H](NC(=O)CC[C@H](NC(=O)CC[C@H](NC(=O)CCCCCCCCCCCCCCCCCCC(=O)O)C(=O)O)C(=O)O)C(=O)O)[C@@H](C)CC)C(C)C)C(C)C)[C@@H](C)CC)[C@@H](C)CC)[C@@H](C)O)[C@@H](C)O)C(=O)N[C@@H](CCC(=O)O)C(=O)N[C@@H](C)C(=O)N[C@@H](CCCNC(=N)N)C(=O)N[C@H](C(N)=O)C(C)C [Compound 10] (H-K([AEEA-AEEA-γGlu-γGlu-γGlu-C20 diacid])IVLSLDVPIGLLQILLEQARARAAREQATTNAEIEARV-NH2) |  |

| Molecule | Average purity loss per week [1] | Particle formation onset [2] | IC50 (Human CRF1 receptor) | IC50 (Human CRF2 receptor) | also measured |
| --- | --- | --- | --- | --- | --- |
| DNPSLSIDLTFHLLRTLLELARTQSQRERAEQNRIIFDSV-NH2 [Compound 1] |  |  |  | 0.00012 µM |  |
